Measured values taken from US6251925A, “Therapeutic biaryl derivatives” (Glaxo Wellcome Inc., priority 1998, dated 2001).

Experiments:
Type in all cases: cell-based
[1] = target: human beta-1-adrenoceptor (Homo sapiens, UniProt P08588); test: extracellular cAMP accumulation in CHO-6CRE-luciferase cells expressing hβ1 (selectivity of hβ3 agonists); details: relative potency hβ3 vs hβ1, cAMP accumulation
Protocol: (§1) A particularly useful method for determining agonist activity at human atypical beta-adrenoceptors involves the use of Chinese hamster ovarian (CHO) cells transfected with the human beta-3-adrenoceptor according to Method 1.
(§2) General cell culture guidelines are observed (Fershney, R. A. (1987) Culture of animal cells: A manual of basic technique. VViley-Liss, Inc., N.Y.). A standard cell culture incubator is used (37° C., 5% CO2 in air, 95% relative humidity). H β3 CHO cells are grown in DMEM/F12 (with pyroxidine.HCl, 15 mM HEPES, L-glutamine), supplanted with 10% heat-inactivated FBS, 500 μg/ml G418, 2 mM L-glutamine, 100 units penicillin G and 100 μg streptomycin sulfate. One confluent flask of cells is trypsinised and resuspended in the above medium at a concentration of 30-40,000 cells/100 μl and plated into 96-well flat bottom plates. The cells are then used for assay within 18-24 hours.
(§3) The medium is aspirated from each well, and replaced with 180 μl DMEM/F12 with […] IBMX. Antagonists, if required, are added at this stage. The plate is then placed back in the incubator for 30 min. Drugs are then added to the wells (20 μl, 100 x required final concentration)for 60 min. Responses were determined by measuring cAMP levels of a 20 ul sample of extracellular media using a scintillation proximity based radio-immunoassay (NEN Flashplates). CHO-6CRE-iuciferase cell lines which stably express hβ3 receptors are seeded at 30,000 cells/well for 24 hr in DMEM/F12 containing 10% FBS. Media is removed from the cells and replaced with DMEM/F12 buffer (180 μl) containing […] IBMX and 1 mM ascorbic acid for 30 min prior to addition of compound. Vehicle or agonist (20 μl) is added and incubated at 37° C. for 60 minutes. At the end of the incubation period, samples of extracellular media are removed for direct assay in cAMP Flashplates (NEN).
(§4) As used herein, a compound is considered to be an agonist for hβ3if the compound stimulates the accumulation of extracellular cAMP with CHO-6CRE-luciferase cells expressing hβ3. […] The relative potency of a hβ3 agonist may be compared to its potency for stimulating the accumulation of extracellular cAMP with CHO-6CRE-luciferase cells expressing hβ2 and hβ1.

[2] = target: human beta-2-adrenoceptor (Homo sapiens, UniProt P07550); test: extracellular cAMP accumulation in CHO-6CRE-luciferase cells expressing hβ2 (selectivity of hβ3 agonists); details: relative potency hβ3 vs hβ2, cAMP accumulation
human beta-2-adrenoceptor, sequence (P07550 whole entry): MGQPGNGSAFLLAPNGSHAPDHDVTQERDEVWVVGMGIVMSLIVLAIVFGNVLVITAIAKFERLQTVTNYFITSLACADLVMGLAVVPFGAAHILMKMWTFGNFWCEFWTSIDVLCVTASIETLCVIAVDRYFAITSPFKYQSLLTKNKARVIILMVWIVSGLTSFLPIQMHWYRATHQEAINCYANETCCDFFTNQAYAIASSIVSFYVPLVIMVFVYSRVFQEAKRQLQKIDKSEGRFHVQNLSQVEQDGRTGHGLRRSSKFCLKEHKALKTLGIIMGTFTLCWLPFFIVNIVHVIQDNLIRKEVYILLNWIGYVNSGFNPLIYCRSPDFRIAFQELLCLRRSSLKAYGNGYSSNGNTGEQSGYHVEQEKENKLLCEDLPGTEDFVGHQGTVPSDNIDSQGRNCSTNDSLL
Protocol: as §1, §2, §3, §4

[3] = target: human beta-3-adrenoceptor (Homo sapiens, UniProt P13945); test: extracellular cAMP accumulation (agonist activity) in CHO-6CRE-luciferase cells expressing hβ3; details: CHO cells expressing hβ3, 60 min, 37° C.
human beta-3-adrenoceptor, sequence (P13945 whole entry): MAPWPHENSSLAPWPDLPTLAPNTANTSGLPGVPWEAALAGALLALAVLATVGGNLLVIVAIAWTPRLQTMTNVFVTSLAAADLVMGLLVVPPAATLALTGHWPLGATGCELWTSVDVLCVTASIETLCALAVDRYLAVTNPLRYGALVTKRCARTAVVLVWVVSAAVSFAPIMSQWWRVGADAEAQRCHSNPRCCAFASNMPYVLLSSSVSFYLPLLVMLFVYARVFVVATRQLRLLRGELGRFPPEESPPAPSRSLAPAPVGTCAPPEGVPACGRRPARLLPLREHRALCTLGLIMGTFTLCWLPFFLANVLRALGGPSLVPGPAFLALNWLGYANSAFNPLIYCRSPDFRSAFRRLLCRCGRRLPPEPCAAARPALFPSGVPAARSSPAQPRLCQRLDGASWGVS
Protocol: as §1, §2, §3, §4

human beta-1-adrenoceptor, sequence (P08588 whole entry): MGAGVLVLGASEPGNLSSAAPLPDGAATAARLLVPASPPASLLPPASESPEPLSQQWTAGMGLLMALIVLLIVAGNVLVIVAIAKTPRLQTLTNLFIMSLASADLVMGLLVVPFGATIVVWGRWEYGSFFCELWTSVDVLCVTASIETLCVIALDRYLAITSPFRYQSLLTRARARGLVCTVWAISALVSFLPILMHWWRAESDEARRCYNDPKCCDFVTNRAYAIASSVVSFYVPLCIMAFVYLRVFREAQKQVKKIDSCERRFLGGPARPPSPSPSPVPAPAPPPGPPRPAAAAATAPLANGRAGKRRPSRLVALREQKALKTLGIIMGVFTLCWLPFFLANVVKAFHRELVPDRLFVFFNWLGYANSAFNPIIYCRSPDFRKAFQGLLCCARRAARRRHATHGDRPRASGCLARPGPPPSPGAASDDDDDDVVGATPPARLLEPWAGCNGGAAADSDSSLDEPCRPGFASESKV

| SMILES | times more potent at hβ3 than at hβ1 [1] | times more potent at hβ3 than at hβ2 [2] | EC50 [3] [nM] |
| --- | --- | --- | --- |
| O=C(O)c1cccc(-c2cccc(NCCNC[C@H](O)c3cc(Cl)cc(Cl)c3)c2)c1 [Example 9, (R)-3'-[[2-[[2-(3,5-Dichlorophenyl)-2-hydroxyethyl]amino]ethyl]amino]-[1,1'-biphenyl]-3-carboxylic acid] | at least 100 times | at least 100 times | ≤ 100 |
| O=C(O)c1cccc(-c2cccc(NCCNC[C@H](O)c3cccc(Cl)c3)c2)c1 [Example 10, (R)-3'-[[2-[[2-(3-Chlorophenyl)-2-hydroxyethyl]amino]ethyl]amino]-[1,1'-biphenyl]-3-carboxylic acid] | at least 100 times | at least 100 times | ≤ 1 |
| COC(=O)c1cc(C(=O)O)ccc1-c1cccc(NCCNC[C@H](O)c2cccc(Cl)c2)c1 [Example 11, (R)-3'-[[2-[[2-(3-Chlorophenyl)-2-hydroxyethyl]amino]ethyl]amino]-[1,1'-biphenyl]-2,4-dicarboxylic acid 2-methyl ester] | at least 100 times | at least 100 times | ≤ 100 |
| O=C(O)c1ccc(-c2cccc(NCCNC[C@H](O)c3cccc(Cl)c3)c2)c(C(=O)O)c1 [Example 12, (R)-3'-[[2-[[2-(3-Chlorophenyl)-2-hydroxyethyl]amino]ethyl]amino]-[1,1'-biphenyl]-2,4-dicarboxylic acid] | at least 100 times | at least 100 times | ≤ 100 |
| Cc1ccc(C(=O)O)cc1-c1cccc(NCCNC[C@H](O)c2cccc(Cl)c2)c1 [Example 13, (R)-3'-[[2-[[2-(3-Chlorophenyl)-2-hydroxyethyl]amino]ethyl]amino]-[1,1'-biphenyl]-2-methyl-5-carboxylic acid] | at least 100 times | at least 100 times | – |
| O=C(O)c1ccc(-c2cccc(NCCNC[C@H](O)c3cccc(Cl)c3)c2)cc1Cl [Example 14, (R)-3'-[[2-[[2-(3-Chlorophenyl)-2-hydroxyethyl]amino]ethyl]amino]-[1,1'-biphenyl]-3-chloro-4-carboxylic acid] | at least 100 times | at least 100 times | ≤ 100 |
| O=C(O)c1cccc(-c2cccc(NCCNC[C@@H](O)COc3ccccc3)c2)c1 [Example 16] | at least 100 times | at least 100 times | ≤ 1 |
| O=C(O)c1cccc(-c2cccc(OCCNC[C@H](O)c3cccc(Cl)c3)c2)c1 [Example 17] | at least 100 times | at least 100 times | ≤ 100 |
| C[C@H](CNc1cccc(-c2ccc(C(=O)O)cc2C(=O)O)c1)NC[C@H](O)c1cccc(Cl)c1 [Example 20, 3'-[[2R-[[2-(3-Chlorophenyl)-2R-hydroxyethyl]amino]propyl]amino]-[1,1'-biphenyl]-2,4-dicarbonylic acid] | at least 100 times | at least 100 times | ≤ 1 |
| C[C@H](CNc1cccc(-c2cncc(C(=O)O)c2)c1)NC[C@H](O)c1cccc(Cl)c1 [Example 21, 5-[3-[[2R-[[2-(3-Chlorophenyl)-2R-hydroxyethyl]amino]propyl]amino]phenyl]-3-pyridinecarboxylic acid] | at least 100 times | at least 100 times | ≤ 100 |
| C[C@H](CNc1cccc(-c2ncccc2C(=O)O)c1)NC[C@H](O)c1cccc(Cl)c1 [Example 22, 2-[3-[[2R-[[2-(3-Chlorophenyl)-2R-hydroxyethyl]amino]propyl]amino]phenyl]-3-pyridinecarboxylic acid] | at least 100 times | at least 100 times | ≤ 100 |
| O=C(O)c1cc(-c2cccc(NCCNC[C@H](O)c3cccc(Cl)c3)c2)cc2c1OCC2 [Example 23] | at least 100 times | at least 100 times | ≤ 100 |
| O=C(O)c1cncc(-c2cccc(NCCNC[C@H](O)c3cccc(Cl)c3)c2)c1 [Example 24, (R)-5-[3-[[2-[[2-(3-chlorophenyl)-2-hydroxyethyl]amino]ethyl]amino]phenyl]-3-pyridinecarboxylic acid] | at least 100 times | at least 100 times | ≤ 1 |
